As a reminder, the DC50 is the concentration at which degradation of the target reaches its halfway point.

SMILES strings stand for the structures.

The experiment in a line: Western blot analysis for "B" compounds. The format is cell-based. Particulars: read-out: Traditional Western Degradation Potency (DC50). In outline:
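Target protein levels given as relative mean band intensity over GAPDH from scanned immunoblots. Lysates of treated cells in RIPA buffer, equalized by BCA, separated on 10% gels and transferred to PVDF.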

As for `O=C1CCC(N2C(=O)c3cc4c(cc3C2=O)CN(C(=O)CN2CCC3(CC2)CCN(c2ccc([C@@H]5c6ccc(O)cc6CC[C@@H]5c5ccccc5)cc2F)C3)C4)C(=O)N1` (mixture of isomers) [Compound B33, 2-(2,6-dioxopiperidin-3-yl)-6-(2-(2-(2-fluoro-4-((1R,2S)-6-hydroxy-2-phenyl-1,2,3,4-tetrahydronaphthalen-1-yl)phenyl)-2,8-diazaspiro[4.5]decan-8-yl)acetyl)-6,7-dihydropyrrolo[3,4-f]isoindole-1,3(2H,5H)-dione], the half-maximal degradation concentration (DC50) is > 100 nM. The same measure for `O=C1CCC(N2C(=O)c3cc4c(cc3C2=O)CN(C(=O)[C@H]2CC[C@@H](N3CC(Oc5ccc([C@@H]6c7ccc(O)cc7CC[C@@H]6c6ccccc6)cc5)C3)CC2)C4)C(=O)N1` (stereo partly drawn) [Compound B126, 2-(2,6-dioxopiperidin-3-yl)-6-((1R,4s)-4-(3-(4-((1R,2S)-6-hydroxy-2-phenyl-1,2,3,4-tetrahydronaphthalen-1-yl)phenoxy)azetidin-1-yl)cyclohexane-1-carbonyl)-6,7-dihydropyrrolo[3,4-f]isoindole-1,3(2H,5H)-dione]: 10 to 100 nM; for `O=C1CCC(N2C(=O)c3cc4c(cc3C2=O)CC2(C4)CN(CC3CCN(c4ccc([C@@H]5c6ccc(O)cc6CC[C@@H]5c5ccccc5)cc4)CC3)C2)C(=O)N1` (stereo partly drawn) [Compound B296, 2′-(2,6-dioxopiperidin-3-yl)-1-((1-(4-((1R,2S)-6-hydroxy-2-phenyl-1,2,3,4-tetrahydronaphthalen-1-yl)phenyl)piperidin-4-yl)methyl)-5′,7′-dihydro-1′H-spiro[azetidine-3,6′-cyclopenta[f]isoindole]-1′,3′(2'H)-dione]: > 100 nM; for `O=C1CCC(N2Cc3cc4c(cc3C2=O)CN(C2CCN(CC3CCN(c5ccc([C@@H]6c7ccc(O)cc7CC[C@@H]6c6ccccc6)cc5)CC3)CC2)C4)C(=O)N1` (mixture of isomers) [Compound B3, 3-(6-(1-((1-(4-((1R,2S)-6-hydroxy-2-phenyl-1,2,3,4-tetrahydronaphthalen-1-yl)phenyl)piperidin-4-yl)methyl)piperidin-4-yl)-1-oxo-3,5,6,7-tetrahydropyrrolo[3,4-f]isoindol-2(1H)-yl)piperidine-2,6-dione]: < 10 nM. The same measure for `O=C1CCC(N2C(=O)c3cc4c(cc3C2=O)CN(Cc2ccc(N3CCN(c5ccc([C@@H]6c7ccc(O)cc7CC[C@@H]6c6ccccc6)cc5)CC3)nc2)C4)C(=O)N1` (stereo partly drawn) [Compound B282, 2-(2,6-dioxopiperidin-3-yl)-6-((6-(4-(4-((1R,2S)-6-hydroxy-2-phenyl-1,2,3,4-tetrahydronaphthalen-1-yl)phenyl)piperazin-1-yl)pyridin-3-yl)methyl)-6,7-dihydropyrrolo[3,4-f]isoindole-1,3(2H,5H)-dione]: > 100 nM; for `O=C1CCC(N2C(=O)c3cc4c(cc3C2=O)CN(CC2CCN(CC3CN(c5ccc([C@@H]6c7ccc(O)cc7CC[C@@H]6c6ccc(F)cc6)cc5)C3)CC2)C4)C(=O)N1` (stereo partly drawn) [Compound B70, 2-(2,6-dioxopiperidin-3-yl)-6-((1-((1-(4-((1R,2S)-2-(4-fluorophenyl)-6-hydroxy-1,2,3,4-tetrahydronaphthalen-1-yl)phenyl)azetidin-3-yl)methyl)piperidin-4-yl)methyl)-6,7-dihydropyrrolo[3,4-f]isoindole-1,3(2H,5H)-dione]: > 100 nM; for `O=C1CCC(N2C(=O)c3cc4c(cc3C2=O)CN([C@H]2CC[C@H](NC3CCN(c5ccc([C@@H]6c7ccc(O)cc7CC[C@@H]6c6ccccc6)cc5)CC3)CC2)C4)C(=O)N1` (stereo partly drawn) [Compound B97, 2-(2,6-dioxopiperidin-3-yl)-6-((1R,4r)-4-((1-(4-((1R,2S)-6-hydroxy-2-phenyl-1,2,3,4-tetrahydronaphthalen-1-yl)phenyl)piperidin-4-yl)amino)cyclohexyl)-6,7-dihydropyrrolo[3,4-f]isoindole-1,3(2H,5H)-dione]: > 100 nM. `O=C1CCC(N2Cc3cc4c(cc3C2=O)CN(C2CN(CC3CCN(c5ccc([C@@H]6c7ccc(O)cc7CC[C@@H]6c6ccccc6)cc5)CC3)C2)C4=O)C(=O)N1` (stereo partly drawn) [Compound B302, 2-(2,6-dioxopiperidin-3-yl)-6-(1-((1-(4-((1R,2S)-6-hydroxy-2-phenyl-1,2,3,4-tetrahydronaphthalen-1-yl)phenyl)piperidin-4-yl)methyl)azetidin-3-yl)-2,3,6,7-tetrahydropyrrolo[3,4-f]isoindole-1,5-dione]: the half-maximal degradation concentration (DC50) was > 100 nM. The same measure for `O=C1CCC(N2C(=O)c3cc4c(cc3C2=O)CN(CC2(F)CCN(CC3CN(c5ccc([C@@H]6c7ccc(O)cc7CC[C@@H]6c6ccccc6)cc5)C3)CC2)C4)C(=O)N1` (stereo partly drawn) [Compound B63, 2-(2,6-dioxopiperidin-3-yl)-6-((4-fluoro-1-((1-(4-((1R,2S)-6-hydroxy-2-phenyl-1,2,3,4-tetrahydronaphthalen-1-yl)phenyl)azetidin-3-yl)methyl)piperidin-4-yl)methyl)-6,7-dihydropyrrolo[3,4-f]isoindole-1,3(2H,5H)-dione]: > 100 nM; for `O=C1CCC(N2C(=O)c3cc4c(cc3C2=O)CN(C[C@H]2CC[C@H](C(=O)N3CC(Oc5ccc([C@@H]6c7ccc(O)cc7CC[C@@H]6c6ccccc6)cc5)C3)CC2)C4)C(=O)N1` (stereo partly drawn) [Compound B293, 2-(2,6-dioxopiperidin-3-yl)-6-(((1R,4r)-4-(3-(4-((1R,2S)-6-hydroxy-2-phenyl-1,2,3,4-tetrahydronaphthalen-1-yl)phenoxy)azetidine-1-carbonyl)cyclohexyl)methyl)-6,7-dihydropyrrolo[3,4-f]isoindole-1,3(2H,5H)-dione]: 10 to 100 nM. In the case of `O=C1CCC(N2C(=O)c3cc4c(cc3C2=O)CN(CC(=O)N2CCC3(CC2)CCN(c2ccc([C@H]5c6ccc(O)cc6CC[C@H]5c5ccccc5)cc2)CC3)C4)C(=O)N1` (stereo partly drawn) [Compound B180, 2-(2,6-dioxopiperidin-3-yl)-6-(2-(9-(4-((1S,2R)-6-hydroxy-2-phenyl-1,2,3,4-tetrahydronaphthalen-1-yl)phenyl)-3,9-diazaspiro[5.5]undecan-3-yl)-2-oxoethyl)-6,7-dihydropyrrolo[3,4-f]isoindole-1,3(2H,5H)-dione], the DC50 was > 100 nM. The same measure for `O=C1CCC(N2C(=O)c3cc4c(cc3C2=O)CN(CC(=O)N2CCC(Oc3ccc([C@@H]5c6ccc(O)cc6CC[C@@H]5c5ccccc5)cc3)CC2)C4)C(=O)N1` (stereo partly drawn) [Compound B284, 2-(2,6-dioxopiperidin-3-yl)-6-(2-(4-(4-((1R,2S)-6-hydroxy-2-phenyl-1,2,3,4-tetrahydronaphthalen-1-yl)phenoxy)piperidin-1-yl)-2-oxoethyl)-6,7-dihydropyrrolo[3,4-f]isoindole-1,3(2H,5H)-dione]: > 100 nM. For `O=C1CCC(N2C(=O)c3cc4c(cc3C2=O)CN(C2CCC(CNC3CN(c5ccc([C@@H]6c7ccc(O)cc7CC[C@@H]6c6ccccc6)cc5)C3)CC2)C4)C(=O)N1` (stereo partly drawn) [Compound B100, 2-(2,6-dioxopiperidin-3-yl)-6-(4-(((1-(4-((1R,2S)-6-hydroxy-2-phenyl-1,2,3,4-tetrahydronaphthalen-1-yl)phenyl)azetidin-3-yl)amino)methyl)cyclohexyl)-6,7-dihydropyrrolo[3,4-f]isoindole-1,3(2H,5H)-dione] the value was > 100 nM; for `O=C1CCC(N2C(=O)c3cc4c(cc3C2=O)CN(C2CCN(C(=O)[C@H]3C[C@H](Oc5ccc([C@@H]6c7ccc(O)cc7CC[C@@H]6c6ccccc6)cc5)C3)CC2)C4)C(=O)N1` (stereo partly drawn) [Compound B285, 2-(2,6-dioxopiperidin-3-yl)-6-(1-((1R,3r)-3-(4-((1R,2S)-6-hydroxy-2-phenyl-1,2,3,4-tetrahydronaphthalen-1-yl)phenoxy)cyclobutane-1-carbonyl)piperidin-4-yl)-6,7-dihydropyrrolo[3,4-f]isoindole-1,3(2H,5H)-dione], 10 to 100 nM; for `O=C1CCC(N2Cc3cc4c(cc3C2=O)CN(C2CCN(CC3CCN(c5ccc([C@@H]6c7ccc(O)cc7CC[C@@H]6c6ccccc6)cc5)CC3)CC2)C4=O)C(=O)N1` (stereo partly drawn) [Compound B303, 2-(2,6-dioxopiperidin-3-yl)-6-(1-((1-(4-((1R,2S)-6-hydroxy-2-phenyl-1,2,3,4-tetrahydronaphthalen-1-yl)phenyl)piperidin-4-yl)methyl)piperidin-4-yl)-2,3,6,7-tetrahydropyrrolo[3,4-f]isoindole-1,5-dione], > 100 nM.

`O=C1CCC(N2C(=O)c3cc4c(cc3C2=O)CN(CC(=O)N2CC(n3cc(-c5ccc([C@@H]6c7ccc(O)cc7CC[C@@H]6c6ccccc6)cc5)cn3)C2)C4)C(=O)N1` (stereo partly drawn) [Compound B59, 2-(2,6-dioxopiperidin-3-yl)-6-(2-(3-(4-(4-((1R,2S)-6-hydroxy-2-phenyl-1,2,3,4-tetrahydronaphthalen-1-yl)phenyl)-1H-pyrazol-1-yl)azetidin-1-yl)-2-oxoethyl)-6,7-dihydropyrrolo[3,4-f]isoindole-1,3(2H,5H)-dione]: the half-maximal degradation concentration (DC50) is > 100 nM. For `O=C1CCC(N2C(=O)c3cc4c(cc3C2=O)CN([C@H]2CC[C@@H](NC3CCN(c5ccc([C@@H]6c7ccc(O)cc7CC[C@@H]6c6ccccc6)cc5)CC3)CC2)C4)C(=O)N1` (stereo partly drawn) [Compound B96, 2-(2,6-dioxopiperidin-3-yl)-6-((1S,4s)-4-((1-(4-((1R,2S)-6-hydroxy-2-phenyl-1,2,3,4-tetrahydronaphthalen-1-yl)phenyl)piperidin-4-yl)amino)cyclohexyl)-6,7-dihydropyrrolo[3,4-f]isoindole-1,3(2H,5H)-dione] the value was > 100 nM; for `O=C1CCC(N2C(=O)c3cc4c(cc3C2=O)CN(CC(=O)N2CCC3(CC2)CCN(c2ccc([C@@H]5c6ccc(O)cc6CC[C@@H]5c5ccccc5)cc2)CC3)CC4)C(=O)N1` (stereo partly drawn) [Compound B194, 2-(2,6-dioxopiperidin-3-yl)-6-(2-(9-(4-((1R,2S)-6-hydroxy-2-phenyl-1,2,3,4-tetrahydronaphthalen-1-yl)phenyl)-3,9-diazaspiro[5.5]undecan-3-yl)-2-oxoethyl)-5,6,7,8-tetrahydro-1H-pyrrolo[3,4-g]isoquinoline-1,3(2H)-dione], 10 to 100 nM.
